Assay [1] deals with hAoSMC, HUVEC, Detroit 551, 5637, HT1080 and MDA-MB-435S cells. Kind of assay: Cell proliferation assay (methylene blue staining) of cultured, actively growing cells. In kind it is cell-based, Human. Conditions: all tested cells (hAoSMC, HUVEC, Detroit 551, 5637, HT1080, MDA-MB-435S); increasing concentrations, 72-96 hours after seeding. From the text:
The present study sought to compare the effect of each of the trans-halofuginone enantiomers to the racemic mixture on proliferation of cultured, actively growing cells. Human aortic smooth muscle cells (hAoSMC) and Human Umbilical Vein Endothelial Cells (HUVEC) were purchased from Clonetics and grown in Clonetics suitable growth media. Human skin fibroblasts (Detroit 551) and human fibrosarcoma (HT1080) cell lines were purchased from the American Type Culture Collection (ATCC) and grown in MEM supplemented with 10% FCS, 1 mM Sodium pyruvate, 2 mM L-glutamine and 0.2% antibiotic solution (Biological industries, Beit-Haemek, Israel). The human bladder carcinoma (5637) and human breast carcinoma (MDA-MB-435S) cell lines were purchased from the ATCC and grown in DMEM supplemented with 10% FCS and 0.2% antibiotic solution (Biological industries, Beit-Haemek, Israel). Cells were grown in 37° C. and 5% CO2. Cells were seeded in 96-well plates. Twenty-four hours later, increasing concentrations of tested compounds were added to the wells. When the cultures reached sub confluence (72-96 hours after seeding) the cells were fixed with 2.5% glutaraldehyde, washed three times with distilled water, followed by one wash with 0.1 M Boric buffer (pH 8.5). […] The optical density at 620 nm was determined using a micro plate spectrophotometer.

Assay [2] concerns collagen type I synthesis of skin fibroblasts (Detroit 551). Description: Collagen type I synthesis of skin fibroblasts (CICP, Prolagen-C ELISA). In kind it is cell-based, Human. Conditions: for effect on collagen type I synthesis of skin fibroblasts: Detroit 551, 75 μM ascorbic acid, 48 h, increasing concentrations. As to the method:
Skin fibroblasts (Detroit 551) were seeded in a 96-well plate (3000 cells/well). Twenty-four hours later the cells were incubated for additional 48 h with 75 μM ascorbic acid and increasing concentrations of the tested compounds (induction medium was exchanged after 24 h). Cell medium was collected and the Prolagen-C ELISA kit of “METRA” was used for detection of collagen type I C′ propeptide (CICP) concentration.

The next assay has as its system coccidiosis. The note with it: versus racemic compound; cited from earlier work.

Entries after “also recorded” stand apart in the source; their conditions may differ.

As to `O=C(CC1NCCCC1O)Cn1cnc2cc(Br)c(Cl)cc2c1=O` (single isomer, unassigned; enantiomer 7) [D-enantiomer, 7-bromo-6-chloro-3-[3-(3-hydroxy-2-piperidinyl)-2-oxopropyl]-4(3H)-quinazolinone], the “effect on cell proliferation” value in assay [1] is reported as “suppressed proliferation of all the tested cells in a dose dependent manner”. In addition, the “effect on collagen type I synthesis of skin fibroblasts” value in assay [2] (listed as D-enantiomer of halofuginone) is “suppressed collagen type I synthesis of skin fibroblasts in a dose dependent manner”. In assay [2] (Detroit 551, versus racemic mixture of halofuginone, listed as D-enantiomer of halofuginone), the “activity in suppressing collagen type I synthesis relative to the racemic mixture” value was “about two”. The “coccidiostatic activity relative to the racemic compound” value with coccidiosis is given as “three”.
For `O=C(CC1NCCCC1O)Cn1cnc2cc(Br)c(Cl)cc2c1=O` (single isomer, unassigned; enantiomer 7) [L-enantiomer, 7-bromo-6-chloro-3-[3-(3-hydroxy-2-piperidinyl)-2-oxopropyl]-4(3H)-quinazolinone], in assay [1], the “effect on cell proliferation” value was “no effect; also recorded: virtually inactive”. For the same compound, in assay [2], the “effect on collagen type I synthesis of skin fibroblasts” value is “no effect; also recorded: virtually inactive”.

Source of the values: patent publication US20110212165A1, “PHARMACEUTICAL COMPOSITIONS OF THE ISOLATED D-ENANTIOMER OF THE QUINAZOLINONE DERIVATIVE HALOFUGINONE” (priority 2005, published 2011).
